Results: US7273848B2, “Apolipoprotein A-I agonists and their use to treat dyslipidemic disorders” (priority 1997, dated 2007)
Non-standard residues stand in square brackets, D forms with d. Residues, ends and D or L forms follow the SMILES beside them. No end group written: not given here. 1Nal = N[C@@H](Cc1cccc2ccccc12)C(=O)O; Aib = CC(C)(N)C(=O)O

Assays:
[1] = target: T1, LCAT (purified from human plasma) (Homo sapiens, UniProt P04180); test: LCAT activation assay; format: biochemical; details: LCAT activation as compared with native human ApoA-I (= 100%), equivalent masses
T1 construct: from tissue; host or cells: human plasma
T1 sequence (P04180 25-440): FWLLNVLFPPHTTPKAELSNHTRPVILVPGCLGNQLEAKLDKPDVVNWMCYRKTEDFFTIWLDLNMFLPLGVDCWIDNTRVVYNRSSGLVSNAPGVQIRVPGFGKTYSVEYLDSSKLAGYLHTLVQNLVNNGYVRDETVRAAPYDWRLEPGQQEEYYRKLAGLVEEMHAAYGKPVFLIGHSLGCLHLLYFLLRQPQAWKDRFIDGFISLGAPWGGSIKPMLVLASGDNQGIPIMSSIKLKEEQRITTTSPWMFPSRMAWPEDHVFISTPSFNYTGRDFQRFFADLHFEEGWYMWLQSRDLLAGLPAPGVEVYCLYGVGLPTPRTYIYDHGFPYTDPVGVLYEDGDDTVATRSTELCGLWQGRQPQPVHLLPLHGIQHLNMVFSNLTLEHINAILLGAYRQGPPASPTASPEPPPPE
Method in brief: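 Activity was expressed as percentage conversion of radiolabelled cholesterol to cholesteryl ester, normalised to native ApoA-I as 100%. LCAT purified from human plasma was added to peptide-preincubated EPC or POPC/cholesterol (20:1) small unilamellar vesicles at pH 7.4. Specific activity is the peptide concentration reaching the conversion plateau at a fixed timepoint.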

[2] = Circular dichroism helicity determination; format: physicochemical; details: percent helicity; for He (%) TFE: 5 μM peptide, 90% vol TFE; for He (%) TFE / He (%) SUVs: 37° C.; for He (%) free: unbound peptide 5 μM in 5 mM phosphate buffer, pH 7.4, 37° C.; for He (%) mics: peptide-micelle complexes, Ri=100, 37° C.; for He (%) SUVs: peptide-SUV complexes (20:1 EPC:Chol., Ri=30 and Ri=50)
Description: Far UV circular dichroism spectra were recorded between 190 and 260 nm (in 0.5 nm or 0.2 nm increments) with a AVIV62DS spectrometer (AVIV Associates, Lakewood, N.J., USA) equipped with a thermoelectric cell holder and sample changer. The instrument was calibrated with (+)-10-[…]. Between one and three scans were collected for each sample, using 10 cm, 5 cm, 1 cm and 0.1 cm path length quartz Suprasil cells, respectively, for peptide concentrations of 10^−7 M to 10^−4 M. The bandwidth was fixed at 1.5 nm and the scan speed to 1s per wavelength step. The reported data are the mean of at least 2 or 3 independent measurements.
After background substraction, spectra were converted to molar ellipticity (θ) per residue in deg. […] dmol^−1. The peptide concentration was determined by amino acid analysis and also by absorption spectrometry on a Perkin Elmer Lambda 17 UV/Visible spectrophotometer when the peptide contained a chromophore (tryptophane, dansyl, naphtylalanine).
CD spectra were obtained with free, unbound peptide (5 μM in 5 mM phosphate buffer, pH 7.4); with peptide-SUV complexes (20:1 EPC:Chol., Ri=30 and Ri=50); with peptide-micelle complexes (1-myristoyl-2-hydroxy-sn-glycero-3-phosphatidyl choline, Ri=100); and with free, unbound peptide in the presence of 2,2,2-trifluoroethanol (TFE) (5 μM peptide, 90% vol TFE).
The SUVs were obtained by dispersing the lipids (10 mM, 20:1 EPC:Chol., Avanti Polar Lipids, AL) in phosphate buffer (5 mM, pH 7.4) with bubbling N2 for 5 min., followed by sonication (1.5 hr.) in a bath sonicator. The homogeneity of the preparation was checked by FPLC.
The micelles were obtained by dispersing the lipid (6 mM 1-myristoyl-2-hydroxy-sn-glycero-3-phosphatidyl choline, Avanti Polar Lipids, AL) in phosphate buffer (5 mM, pH 7.4) with bubbling N2 for 5 min., followed by vortexing.
To obtain the peptide-SUV complexes, SUVs were added to the peptide (5 μM in 5 mM phosphate buffer, pH 7.4) at a phospholipid-peptide molar ratio (Ri) of 30 or 50.
To obtain the peptide-micelle complexes, micelles were added to the peptide (5 μM in 5 mM phosphate buffer, pH 7.4) at a Ri of 100.
All spectra were recorded at 37° C.
The degree of helicity of the peptides in the various conditions was determined from the mean residue ellipticity at 222 nm (Chen et al., 1974, Biochemistry 13:3350-3359) or by comparing the CD spectra obtained to reference spectra available on databases (16 helical reference spectra from Provencher & Glockner, 1981, Biochemistry 20:33-37; denatured protein reference spectra from Venyaminov et al., 1993, Anal. Biochem. 214:17-24) using the CONTIN curve-fitting algorithm version 2DP, CD-1 pack (August 1982) (Provencher, 1982, Comput. Phys. Commun. 27:213-227, 229-242). Acceptable fit was determined using the statistical analysis methodology provided by the CONTIN algorithm. The error of all methods was ±5% helicity.

| Molecule | ACTIVITY (%) LCAT [1] | He (%) TFE [2] | He (%) free [2] | He (%) mics [2] | He (%) SUVs [2] |
| --- | --- | --- | --- | --- | --- |
| CC(C)C[C@H](NC(=O)[C@H](C)NC(=O)[C@H](CCC(=O)O)NC(=O)[C@H](CC(C)C)NC(=O)C(C)(C)NC(=O)[C@H](CCC(=O)O)NC(=O)[C@H](CC(N)=O)NC(=O)[C@H](CC(C)C)NC(=O)[C@H](CC(C)C)NC(=O)[C@H](CCC(=O)O)NC(=O)[C@H](CC(C)C)NC(=O)[C@H](Cc1ccccc1)NC(=O)[C@H](CC(C)C)NC(=O)[C@H](CC(=O)O)NC(=O)[C@H](CC(C)C)NC(=O)[C@@H](NC(=O)[C@@H]1CCCN1)C(C)C)C(=O)N[C@@H](CCCCN)C(=O)N[C@@H](CCC(N)=O)C(=O)N[C@@H](CCCCN)C(=O)N[C@@H](CC(C)C)C(=O)N[C@@H](CCCCN)C(=O)O [compound 31, PVLDLFLELLNEXLEALKQKLK] (H-PVLDLFLELLNE[Aib]LEALKQKLK-OH) | 34% | 90% | 49% | 98% | – |
| PVLDLFRELWNELLEALKQKLK [peptide 15] | 60% | 68% | 55% | 60% | 64% |
| PLLELLKELLQELLEALKQKLK [compound 36] | 31% | 95% | 95% | 100% | – |
| CC(C)C[C@H](NC(=O)[C@H](C)NC(=O)[C@H](CCC(=O)O)NC(=O)[C@H](CC(C)C)NC(=O)C(C)(C)NC(=O)[C@H](CCC(=O)O)NC(=O)[C@H](CC(N)=O)NC(=O)[C@H](CC(C)C)NC(=O)[C@H](CCCCN)NC(=O)[C@H](CCC(=O)O)NC(=O)[C@H](CCCNC(=N)N)NC(=O)[C@H](Cc1c[nH]c2ccccc12)NC(=O)[C@H](CCC(=O)O)NC(=O)[C@H](CC(=O)O)NC(=O)[C@H](CC(C)C)NC(=O)[C@@H](NC(=O)[C@@H]1CCCN1)C(C)C)C(=O)N[C@@H](CCCCN)C(=O)N[C@@H](CCC(N)=O)C(=O)N[C@@H](CCCCN)C(=O)N[C@@H](CC(C)C)C(=O)N[C@@H](CCCCN)C(=O)O [compound 62, PVLDEWREKLNEXLEALKQKLK] (H-PVLDEWREKLNE[Aib]LEALKQKLK-OH) | 16% | – | 15% | 85% | 43% |
| PVLDLFRELLELLKQKLK [compound 217] | 30% | 70% | 52% | 78% | 76% |
| Ac-PLLDLFRELLEELKQKLK-NH2 [compound 197] | 81% | 69% | 43% | 70% | – |
| PVLDLFRELLNELWEALKQKLK [compound 28] | 40% | 81% | 82% | 98% | 90% |
| DWLKAFYDKVAEKLKEAF [peptide 244, reference compound] | 5% | 48% | 9% | 40% | 13% |
| PAADAFREAANEAAEAAKQKAK [compound 105] | 1% | 65% | 29% | 28% | 32% |
| CC(C)C[C@H](NC(=O)[C@H](CCCCN)NC(=O)[C@H](CCC(N)=O)NC(=O)[C@H](CCCCN)NC(=O)[C@H](CC(C)C)NC(=O)[C@H](Cc1cccc2ccccc12)NC(=O)[C@H](CCC(=O)O)NC(=O)[C@H](CC(C)C)NC(=O)[C@H](CC(C)C)NC(=O)[C@H](CCC(=O)O)NC(=O)[C@H](CC(N)=O)NC(=O)[C@H](CC(C)C)NC(=O)[C@H](CC(C)C)NC(=O)[C@H](CCC(=O)O)NC(=O)[C@H](CCCNC(=N)N)NC(=O)[C@H](Cc1ccccc1)NC(=O)[C@H](CC(C)C)NC(=O)[C@H](CC(=O)O)NC(=O)[C@H](CC(C)C)NC(=O)[C@@H](NC(=O)[C@@H]1CCCN1)C(C)C)C(=O)N[C@@H](CCCCN)C(=O)O [peptide 1, PVLDLFRELLNELLEZLKQKLK] (H-PVLDLFRELLNELLE[1Nal]LKQKLK-OH) | 120% | 69% | 77% | 85% | 81% |
| PVLDLFKELLNELLEALKQKLK [peptide 7] | 83% | 73% | 77% | 89% | 85% |
| CC(C)C[C@H](NC(=O)[C@H](C)NC(=O)[C@H](CCC(=O)O)NC(=O)[C@H](CC(C)C)NC(=O)C(C)(C)NC(=O)[C@H](CCC(=O)O)NC(=O)[C@H](CC(N)=O)NC(=O)[C@H](CC(C)C)NC(=O)[C@H](CC(C)C)NC(=O)[C@H](CCC(=O)O)NC(=O)[C@H](CCCNC(=N)N)NC(=O)[C@H](Cc1ccccc1)NC(=O)[C@H](CCC(=O)O)NC(=O)[C@H](CC(=O)O)NC(=O)[C@H](CC(C)C)NC(=O)[C@@H](NC(=O)[C@@H]1CCCN1)C(C)C)C(=O)N[C@@H](CCCCN)C(=O)N[C@@H](CCC(N)=O)C(=O)N[C@@H](CCCCN)C(=O)N[C@@H](CC(C)C)C(=O)N[C@@H](CCCCN)C(=O)O [compound 91, PVLDEFRELLNEXLEALKQKLK] (H-PVLDEFRELLNE[Aib]LEALKQKLK-OH) | 6% | 100% | 43% | 100% | – |
| CC(C)C[C@@H](NC(=O)[C@@H](C)NC(=O)[C@@H](CCC(=O)O)NC(=O)[C@@H](CC(C)C)NC(=O)C(C)(C)NC(=O)[C@@H](CCC(=O)O)NC(=O)[C@@H](CC(N)=O)NC(=O)[C@@H](CC(C)C)NC(=O)[C@@H](CC(C)C)NC(=O)[C@@H](CCC(=O)O)NC(=O)[C@@H](CCCNC(=N)N)NC(=O)[C@@H](Cc1ccccc1)NC(=O)[C@@H](CC(C)C)NC(=O)[C@@H](CC(=O)O)NC(=O)[C@@H](CC(C)C)NC(=O)[C@H](NC(=O)[C@H]1CCCN1)C(C)C)C(=O)N[C@H](CCCCN)C(=O)N[C@H](CCC(N)=O)C(=O)N[C@H](CCCCN)C(=O)N[C@H](CC(C)C)C(=O)N[C@H](CCCCN)C(=O)O [compound 96, pvldlfrellneXlealkqklk] (H-[dP][dV][dL][dD][dL][dF][dR][dE][dL][dL][dN][dE][Aib][dL][dE][dA][dL][dK][dQ][dK][dL][dK]-OH) | 5% | 81% | 52% | 85% | 63% |
